From patent US20250326834A1, “COMBINATION THERAPY OF CLAUDIN 18.2 ANTAGONIST AND PD-1/PD-L1 AXIS INHIBITOR” (SUZHOU TRANSCENTA THERAPEUTICS CO., LTD., priority 2021, published 2025) come the findings set out here.

Experiment [1] relates to CT26-CLDN18.2 syngeneic tumor. The experiment can be described thus: CT26-CLDN18.2 syngeneic tumor model, 18B10 and Atezolizumab. The class given is in vivo, BALB/c mice. From the text:
CT26 is synergic mouse tumor model. CT26-CLDN18.2 was purchased from Kyinno (Cat #, KC-1195), which was stalely transfected with human CLDN18.2 expression. The tumor cells were routinely sub-cultured twice weekly by trypsin-EDTA treatment (Hyclone). The cells growing in an exponential growth phase were harvested and counted for tumor inoculation. Female SPF grade BALB/c mice were inoculated with 2×10^6 CT26-CLDN18.2 cells. Animal were selected and randomized to 4 groups (n=8) when tumors grow to 80-120 mm^3. Animals were then treated with either 10 mg/kg Isotype control, 10 mg/kg anti-CLDN18.2 antibody 18B10, 3 mg/kg anti-PD-L1 antibody Atezolizumab, or 10 mg/kg anti-CLDN18.2 antibody 18B10 and 3 mg/kg anti-PD-L1 antibody Atezolizumab twice a week for 3 weeks by i.p. injection. Tumor size was measured twice a week in two dimensions using a caliper (INSIZE) and the volume was expressed in mm^3 using the formula: V=0.5 a×b^2 where a and b are the long and short diameters of the tumor, respectively. Results were analyzed using Prism GraphPad and expressed as mean±S.E.M. Comparisons between two groups were made by T-test, and the difference is considered significant if p is *<0.05 and **<0.01.

Experiment [2] relates to MC38-CLDN18.2 syngeneic tumor. The experiment can be described thus: MC38-CLDN18.2 syngeneic tumor model, 18B10 and Atezolizumab. In kind it is in vivo, C57BL/6 mice. The source says:
MC38-CLDN18.2 was purchase from Kyinno (Cat #, KC-1449), which was stable transfected with human CLDN18.2 expression. The tumor cells were routinely sub-culture twice weekly by trypsin-EDTA treatment (Hyclone). The cells growing in an exponential growth phase were harvested and counted for tumor inoculation. Female SPF grade C57BL/6 mice were inoculated with 2×10^6 MC38-CLDN18.2 cells. Animal were selected and randomized to 4 groups (n=6) when tumors grow to 70-100 mm^3. Animals were then treated with 13 mg/kg Isotype control, 10 mg/kg anti-CLDN18.2 antibody 18B10, 3 mg/kg anti-PD-L1 antibody Atezolizumab, 10 mg/kg anti-CLDN18.2 antibody 18B10 and 3 mg/kg anti-PD-L1 antibody Atezolizumab twice a week for 4 weeks by i.p. injection. Tumor size was measured twice a week in two dimensions using a caliper (INSIZE) and the volume was expressed in mm^3 using the formula: V=0.5 a×b^2 where a and b are the long and short diameters of the tumor, respectively. Results were analyzed using Prism GraphPad and expressed as mean±S.E.M. Comparisons between two groups were made by T-test, and the difference is considered significant if p is *<0.05 and **<0.01.

The test system of experiment [3] is CLDN18.2-expressing gastric tumor cell lines NUGC-4, KATOIII and SNU-620. The experiment can be described thus: Upregulation of PD-L1 expression on tumor cells by supernatant of target cell/PBMC co-culture, flow cytometry. The class given is cell-based. Conditions: supernatant of target cell + human PBMC (E/T 40:1) with 30 μg/ml 18B10 (S3), or of target cell with 5 ng/ml IFN-γ (S4), 72 h. As for the experimental part:
In this assay, three different CLDN18.2-expressing gastric tumor cell lines, NUGC-4 (JCRB, Cat #JCRBB0834), KATOIII (ATCC, Cat #HTB-103) and SNU-620 (Cobioer, Cat #CBP60508), were used as target cell and added to the cell culture plate. No antibody, 30 μg/ml of anti-CLDN18.2 antibody 18B10, 30 μg/ml of isotype control hIgG1 or 5 ng/ml IFN-γ were added into the corresponding wells with the target cell. After the plate was co-cultured at 37° C. for 30 mins, human PBMC as the effector cell was added with a E/T ratio of 40:1. The plate was incubated at 37° C. for 72 hours. At the end of incubation, 100 μl of cell culture supernatant of each well was transferred to another cell culture plate with the same target cell planted. After the second plate was incubated at 37° C. for 72 hours, the target cells were collected and analyzed for PD-L1 expression by flowcytometry using mouse anti-human PD-L1 antibody (BD Pharmingen, Cat #557924). S1 stood for the supernatant of the target cell alone; S2 stood for the supernatant of the target cell and human PBMC with isotype control hIgG1; S3 stood for the supernatant of the target cell and human PBMC with anti-CLDN18.2 antibody 18B10; S4 stood for the supernatant of the target cell with IFN-γ.
For orientation: A flow cytometer gives signals particle by particle.

Setting [4] is: 18B10 10 mg/kg, Atezolizumab 3 mg/kg.

For Atezolizumab [reference compound], the “antitumor activity compared with isotype control” value in experiment [1] (setting [4]) and in experiment [2] (setting [4]) was “better antitumor activity compared with treatment with isotype control” throughout. The TGI amounted to 71.16% in experiment [1] (Day 33, 18B10 10 mg/kg, Atezolizumab 3 mg/kg, i.p. twice a week for 3 weeks) and 71.14% in experiment [2] (Day 51, 18B10 10 mg/kg, Atezolizumab 3 mg/kg, i.p. twice a week for 4 weeks). The Tumor size in experiment [1] (Day 33, 18B10 10 mg/kg, Atezolizumab 3 mg/kg, i.p. twice a week for 3 weeks, mean ± S.E.M.) was determined as 1350.18 ± 366.69 mm^3; in experiment [2] (Day 51, 18B10 10 mg/kg, Atezolizumab 3 mg/kg, i.p. twice a week for 4 weeks, mean ± S.E.M.), 1154.61 ± 526.35 mm^3. Also, the CR is reported as 2/8 in experiment [1] (Day 33, animals per group) and 0/6 in experiment [2] (Day 51, animals per group).

Consider “IFN-γ: IFN-γ, 5 ng/ml added to target cells as comparison (S4) [reference compound]”, for which, in experiment [3], the “PD-L1 expression of target cells compared to S1 group (target cell alone)” value is “increased PD-L1 expression”.

The term TGI denotes how far tumour growth fell short of that in controls.
